# Test results: patent publication US12285426B2, “Combination serotonin specific reuptake inhibitor and serotonin 1A receptor partial agonist for reducing L-DOPA-induced dyskinesia” (The Research Foundation for The State University of new York, priority 2018, dated 2025)
# Tests used:
# [1] = system: DRN 5-HT neurons; assay: Example 3: in vivo single-unit recording of DRN 5-HT neurons; set-up: species or system rat; conditions: 8-OH-DPAT 1 μg/kg i.v.; WAY-100635 100 μg/kg i.v.
# Description: Burr holes (˜1 mm in diameter) were drilled in the skull overlying the DRN of non-lesioned rats. Prior to experimentation all animals were anesthetized with urethane (1.5 g/kgi.p.) and placed in a stereotaxic apparatus. Bipolar stimulating/recording electrodes were implanted in the frontal cortex and DRN on the right side using a micromanipulator (coordinates from Bregma: AP: 3.2 mm; ML: 0.8 mm lateral; DV: 4.4 mm ventral (frontal cortex) or AP: 7.8 mm; ML 3.1 mm; DV: 7.5 mm with the manipulator angled 30 degrees toward Bregma) as previously described [Chakroborty 2017].
# Electrophysiology: Recording microelectrodes were manufactured from 2.0 mm OD borosilicate glass capillary tubing and filled with sodium chloride (2M) solution. […] Temperature was monitored using a rectal probe and maintained at 37 C.° using a heating pad (VI-20F, Fintronics Inc., Orange, CT). […] Once isolated, recordings consisted of basal (pre-drug), saline vehicle, and drug-treatment-(see below) induced changes in spike activity recorded in a series of 3 min duration epochs.
# All compounds and physiological 0.9% saline were prepared daily and administered intravenously (i.v.) through the lateral tail vein to enable rapid examination of potential acute effects of vehicle or drug on DRN neuronal activity. […] DRN 5-HT neuron activity was recorded prior to and immediately following drug administration as described above.
# [2] = target: T1, 5-HT1A receptor expressed in SF9 cells (Homo sapiens, UniProt P08908); conditions: cited from earlier work
# T1 construct: expressed in transfected cells; host or cells: SF9 cells
# T1 sequence (P08908 1-422): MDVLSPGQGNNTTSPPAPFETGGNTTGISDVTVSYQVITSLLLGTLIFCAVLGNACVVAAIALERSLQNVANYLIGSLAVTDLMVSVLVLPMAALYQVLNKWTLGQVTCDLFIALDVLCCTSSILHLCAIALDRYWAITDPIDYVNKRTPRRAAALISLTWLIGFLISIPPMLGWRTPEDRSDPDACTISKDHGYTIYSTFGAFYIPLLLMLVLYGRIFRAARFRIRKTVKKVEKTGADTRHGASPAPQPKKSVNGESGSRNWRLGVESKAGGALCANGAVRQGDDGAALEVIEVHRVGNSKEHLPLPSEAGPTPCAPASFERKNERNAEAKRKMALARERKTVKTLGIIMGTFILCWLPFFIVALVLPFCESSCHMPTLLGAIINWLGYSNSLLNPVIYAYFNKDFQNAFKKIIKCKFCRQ
# [3] = system: 6-OHDA-lesioned rats, L-DOPA-induced dyskinesias; assay: Example 2: LIDs scoring in unilateral 6-OHDA-lesioned rats; type: in vivo, rat; conditions: vilazodone 10 mg/kg or escitalopram 12.5 mg/kg + L-DOPA 5 mg/kg, 2 weeks
# Description: 6-OHDA-induced dopaminergic lesions: Adult male Sprague-Dawley rats were randomly assigned to groups receiving either a 6-OHDA or sham lesion. […] [[…] 2019]. […] Rats were treated for 5 consecutive days/week (Mon-Fri), for 2 weeks. […] All rats were evaluated three times per week for the presence of L-DOPA-induced dyskinesias (LIDs) (Wed-Fri) and once for the stepping test (Tue). […] Scores were given over 1 min epochs and classified as axial, limb, orolingual and locomotive. […] The severity of each LID was scored using a standard scale. Each dyskinetic behavior was given an intensity and frequency score, which were then multiplied. The average sum of the products of each LID was determined in each animal.
# [4] = system: 6-OHDA-lesioned rats, forelimb akinesia; assay: Example 2: stepping test; type: in vivo, rat; conditions: 60 minutes post L-DOPA
# Description: 6-OHDA-induced dopaminergic lesions: Adult male Sprague-Dawley rats were randomly assigned to groups receiving either a 6-OHDA or sham lesion. All rats received desipramine (10 mg/kg i.p.) 30 min prior to surgery to prevent the lesioning of norepinephrine neurons by 6-OHDA. A single injection of 6-OHDA (8 μg of 6-OHDA free base in 4 p of 0.1% ascorbic acid) was delivered into the right medial forebrain bundle (coordinates taken from bregma: −4.3 mm AP, 1.6 mm ML, −8.3 mm DV). The same experimental treatment was performed for the sham-operated rats using vehicle (4 μl of 0.1% ascorbic acid). A standard stepping test was used to evaluate the effectiveness of the 6-OHDA lesion.
# Rats were treated for 5 consecutive days/week (Mon-Fri), for 2 weeks. On the second day of each week, stepping tests were performed prior to drug administration, and 60 minutes post L-DOPA treatment.
# [5] = system: 6-OHDA-lesioned rats, L-DOPA-induced dyskinesia; assay: Experiment 1: AIMs, established LID in L-DOPA-primed hemi-parkinsonian rats; type: in vivo, rat; conditions: LD 6 mg/kg s.c. vs L-DOPA vehicle
# [6] = system: 6-OHDA-lesioned rats, forelimb akinesia; assay: Experiment 1: forepaw adjusting steps (FAS); type: in vivo, rat; conditions: LD 6 mg/kg alone or with VZD 10/20 mg/kg
# Description: Conti et al., 2014). […] Forepaw adjusting steps (FAS): The FAS test is a measure of forelimb akinesia performed according to previous protocols (Bishop et al., 2012; Chang et al., 1999). Data are presented as mean percent intact stepping where the sum of the total steps with the lesioned forepaw was divided by the total steps with the unlesioned forepaw multiplied by 100. Lower percent intact scores indicate greater forelimb akinesia. Prior to baseline, rats received 2 acclimation periods. On-treatment FAS was performed 60 min post-L-DOPA.
# [7] = system: striatum and DRN monoamines and metabolites; assay: Experiment 1: HPLC of striatal and dorsal raphe tissue monoamines; type: in vivo, rat
# Description: Rats (n=30) were rendered hemi-parkinsonian with unilateral 6-OHDA lesions of the left MFB. Three-weeks post-lesion, animals were divided into 2 equally disabled groups, measured by forepaw adjusting steps (FAS, see below). One group (n=8) began receiving 14 days of daily vehicle (0.9% NaCl+0.1% ascorbic acid) and the other (n=22) received L-DOPA methyl ester (6 mg/kg, s.c.; Sigma)+DL-serine 2-(2,3,4-trihydroxybenzyl) hydrazine hydrochloride (benserazide; 15 mg/kg, s.c.; Sigma), hereafter L-DOPA, dissolved in vehicle at a volume of 1 mL/kg. […] Thereafter, L-DOPA-treated animals with Axial, Limb, and Orolingual (ALO) AIMs (see description below, FIG. 1A)<30 were excluded from the study and the remaining L-DOPA-treated animals were divided into 3 equally dyskinetic groups. […] Daily injections continued over 23 days, with behavior assayed on Days 15, 22, 29, and 36. On Day 37, animals were killed 60 min post-treatment. Left and right dorsal striata and DRN were dissected and flash frozen for HPLC analyses.
# High-performance liquid chromatography (HPLC): HPLC, a method for semi-automated catecholamine analysis with coulometric detection, was performed according to prior protocols (Bishop et al., 2009) to determine the tissue levels of monoamines, their metabolites, and monoamine turnover in the striatum and DRN. The limit of detection for DOPAC, DA, 5-hydroxyindoleacetic acid (5-HIAA) and 5-HT was 10^−10 M. Final oxidation current values were plotted on a standard curve from 10^−6 M to 10^−9 M and expressed as pg of monoamine or metabolite per mg of tissue unless otherwise specified.
# On the final treatment day, animals were sacrificed 60 min post-LD treatment and left and right striata and dorsal raphe nucleus (DRN) were collected for high performance liquid chromatography (HPLC) analysis. Values (means±standard mean error) are expressed as picograms of monoamine or metabolite per milligram wet tissue weight. Turnover estimates were determined by dividing a subject's metabolite value by its corresponding monoamine.
# [8] = system: 6-OHDA-lesioned rats, forelimb akinesia; assay: Experiment 2: forepaw adjusting steps (FAS); type: in vivo, rat; conditions: LD 6 mg/kg alone or with VZD
# Description: Forepaw adjusting steps (FAS): The FAS test is a measure of forelimb akinesia performed according to previous protocols (Bishop et al., 2012; Chang et al., 1999). Data are presented as mean percent intact stepping where the sum of the total steps with the lesioned forepaw was divided by the total steps with the unlesioned forepaw multiplied by 100. Lower percent intact scores indicate greater forelimb akinesia. Prior to baseline, rats received 2 acclimation periods. On-treatment FAS was performed 60 min post-L-DOPA.
# [9] = system: lesion-induced motor deficits; assay: FIG. 23D: % intact stepping; type: in vivo; conditions: L-DOPA alone or with AMA 40 mg/kg and/or VZD 2.5 mg/kg
# [10] = in vivo; cited from earlier work
# [11] = system: striatal c-Fos, PPD, PPE, PPT, 5-HT1AR mRNA; assay: Experiment 2: real-time RT-PCR of striatal gene expression
# [12] = system: L-DOPA-primed 6-OHDA-lesioned rats; 5-HT1BR; assay: Experiment 3: AIMs with 5-HT1BR antagonist NAS-181; type: in vivo, rat; conditions: VZD 10 mg/kg, NAS-181 3.0 mg/kg, LD 6 mg/kg s.c.
# Description: All 6-OHDA-lesioned rats (n=17) were tested on the FAS prior to treatment regimens to establish baseline motor performance. Three-weeks post-surgery, all rats were primed with L-DOPA (6 mg/kg, s.c.) for 14 days.
# Beginning 10 min post-treatment, a trained and blinded observer assigned a severity score (0-4) to each of the ALO AIMs based on 1 min ratings every 10 min for 3 h: 0, not present; 1, present from 1-29 s; 2, present 30-59s; 3, present all 60 s, but interruptible by a cylinder tap; 4, present 60 s and not interruptible by a cylinder tap.
# [13] = system: L-DOPA-primed 6-OHDA-lesioned rats; 5-HT1AR; conditions: VZD 10 mg/kg, WAY 0.5 mg/kg, LD 6 mg/kg s.c.
# [14] = Dorsal Raphe Nucleus, VZD(0)+LD(6) mg/kg s.c.
structure (smiles),measurement,setting,value
"Br.CCCN(CCC)C1CCc2cccc(O)c2C1 (stereo not drawn) [8-OH-DPAT, 8-hydroxy-2-(dipropylamino) tetralin hydrobromide]",spontaneous firing of DRN 5-HT neuron,[1],suppressed the spontaneous firing of a DRN neuron
same,increase of [35S]GTPyS binding compared to vehicle,[2],eightfold
CN(C)CCC[C@@]1(c2ccc(F)cc2)OCc2cc(C#N)ccc21 [Escitalopram],LIDs severity,[3],significantly reduced LIDs severity
same,forelimb akinesia / L-DOPA therapeutic (prokinetic) efficacy,[4],affected L-DOPA therapeutic efficacy
"N[C@@H](Cc1ccc(O)c(O)c1)C(=O)O [L-DOPA, L-3,4-dihydroxyphenylalanine]",LID during 14 days of priming,[5],significantly greater LID
same,FAS motor performance vs baseline,[6],significant improvements on motor performance over baseline
same,5-HIAA,[7]; [14],2778 pg/mg wet tissue weight
same,5-HT,[7]; [14],5457 pg/mg wet tissue weight
same,5-HT Turnover,[7]; [14],0.57
same,DA,[7]; [14],112 pg/mg wet tissue weight
same,DA Turnover,[7]; [14],10.3
same,DOPAC,[7]; [14],1114 pg/mg wet tissue weight
same,"DRN DA, DOPAC and DA Turnover",[7]; LD 6 mg/kg,"significantly increased DRN levels of DA, DOPAC and DA Turnover"
same,FAS vs baseline,[8],significant increases in motor ability on each test day
same,% intact stepping,[9],reversed lesion-induced motor deficits
same,fraction crossing the blood-brain barrier,[10],5-10%
same,striatal PPE mRNA,"[11]; lesioned striata, LD 6 mg/kg, VZD 20 mg/kg, day 23",significantly increased PPE in the lesioned striata
same,striatal PPD mRNA,"[11]; lesioned striata, LD 6 mg/kg, VZD 10/20 mg/kg, day 23",significantly increased PPD in the lesioned striata
same,striatal c-Fos mRNA,"[11]; lesioned striata, LD 6 mg/kg, VZD 10 or 20 mg/kg, day 23",potentiated c-Fos in lesioned striata
same,striatal PPT mRNA,"[11]; rat, in vivo",did not increase striatal PPT
"C1=C(CN2CCOCC2)COc2c1cccc2OC[C@H]1CNCCO1.CS(=O)(=O)O [NAS-181, (R)-(+)-2-(3-morpholinomethyl-2H-chromen-8-yl) oxymethyl-morpholine methane-sulfonate]",ALO AIMs,[12],did not significantly alter AIMs or their reduction by Vilazodone
"COc1ccccc1N1CCN(CCN(C(=O)C2CCCCC2)c2ccccn2)CC1.O=C(O)/C=C\C(=O)O [WAY100635, N-[2-[4(2-Methoxyphenyl)-1-piperazinyl]ethyl]-N-2-pyridinylcyclohexanecarboxamide maleate salt]",LIDs severity,[3],reverses the beneficial effects of vilazodone on LIDs
same,spontaneous firing of DRN 5-HT neuron,[1],return to baseline firing
same,summed ALO AIMs,[13],partially reversed the anti-dyskinetic efficacy of Vilazodone
